Reference: a compilation of properties of binary mixtures (doi:10.1007/s10953-022-01154-2)

Experiment: xn = mol fraction of the nth substance listed
Details: 101.3 kPa

CC[n+]1ccn(C)c1.N#C[S-] + CC1COC(=O)O1
Details	electrical conductivity [S/m]	viscosity [mPa·s]
293.15 K, x1 = 0.0989	1.49	4.213
293.15 K, x1 = 0.4	2.17	9.86
293.15 K, x1 = 0.499	2.06	12.27
293.15 K, x1 = 0.599	1.96	15.04
293.15 K, x1 = 0.7045	1.89	18.06
293.15 K, x1 = 0.796	1.77	20.66
293.15 K, x1 = 0.8942	1.66	23.53
293.15 K, x1 = 1	1.58	26.76
298.15 K, x1 = 0.2045	2.28	5.073
298.15 K, x1 = 0.2984	2.45	6.601
298.15 K, x1 = 0.499	2.25	10.59
298.15 K, x1 = 0.796	1.97	17.73
298.15 K, x1 = 0.8942	1.86	20.22
298.15 K, x1 = 1	1.75	23.11
303.15 K, x1 = 0.0989	1.86	3.259
303.15 K, x1 = 0.2045	2.48	4.415
303.15 K, x1 = 0.2984	2.67	5.742
303.15 K, x1 = 0.4	2.58	7.328
303.15 K, x1 = 0.499	2.47	9.17
303.15 K, x1 = 0.599	2.38	11.19
303.15 K, x1 = 0.7045	2.28	13.39
303.15 K, x1 = 0.796	2.19	15.34
303.15 K, x1 = 0.8942	2.06	17.54
303.15 K, x1 = 1	1.95	20.12
308.15 K, x1 = 0.0989	2.09	2.877
308.15 K, x1 = 0.2045	2.7	3.859
308.15 K, x1 = 0.2984	2.92	4.972
308.15 K, x1 = 0.4	2.82	6.341
308.15 K, x1 = 0.499	2.71	7.916
308.15 K, x1 = 0.599	2.62	9.67
308.15 K, x1 = 0.7045	2.52	11.57
308.15 K, x1 = 0.796	2.42	13.28
308.15 K, x1 = 0.8942	2.29	15.21
308.15 K, x1 = 1	2.17	17.5
313.15 K, x1 = 0.0989	2.32	2.569
313.15 K, x1 = 0.2045	2.94	3.39
313.15 K, x1 = 0.2984	3.17	4.367
313.15 K, x1 = 0.4	3.07	5.56
313.15 K, x1 = 0.499	2.96	6.909
313.15 K, x1 = 0.599	2.87	8.432
313.15 K, x1 = 0.796	2.67	11.58
313.15 K, x1 = 0.8942	2.52	13.32
313.15 K, x1 = 1	2.39	15.32
318.15 K, x1 = 0.0989	2.55	2.299
318.15 K, x1 = 0.4	3.33	4.83
318.15 K, x1 = 0.499	3.22	5.988
318.15 K, x1 = 0.796	2.92	10.18
318.15 K, x1 = 1	2.64	13.45
323.15 K, x1 = 0.0989	2.8	2.074
323.15 K, x1 = 0.2984	3.72	3.34
323.15 K, x1 = 0.4	3.6	4.247
323.15 K, x1 = 0.7045	3.28	7.629
323.15 K, x1 = 0.796	3.18	8.83
323.15 K, x1 = 0.8942	3.03	10.15
323.15 K, x1 = 1	2.89	11.78
328.15 K, x1 = 0.0989	3.05	1.878
328.15 K, x1 = 0.2045	3.72	2.36
328.15 K, x1 = 0.2984	4	2.943
328.15 K, x1 = 0.4	3.88	3.72
328.15 K, x1 = 0.7045	3.55	6.692
328.15 K, x1 = 1	3.15	10.37
333.15 K, x1 = 0.2045	4.02	2.095
333.15 K, x1 = 0.2984	4.29	2.593
333.15 K, x1 = 0.4	4.18	3.284
333.15 K, x1 = 0.499	4.06	4.06
333.15 K, x1 = 0.599	3.96	4.939
333.15 K, x1 = 0.7045	3.84	5.885
333.15 K, x1 = 0.796	3.74	6.792
333.15 K, x1 = 0.8942	3.6	7.876
333.15 K, x1 = 1	3.43	9.21
338.15 K, x1 = 0.2045	4.34	–
338.15 K, x1 = 0.2984	4.61	–
338.15 K, x1 = 0.4	4.47	–
338.15 K, x1 = 0.499	4.35	–
338.15 K, x1 = 0.599	4.26	–
338.15 K, x1 = 0.7045	4.13	–
338.15 K, x1 = 0.796	4.02	–
338.15 K, x1 = 0.8942	3.89	–
338.15 K, x1 = 1	3.72	–
338.18 K, x1 = 0.0989	–	1.557
338.18 K, x1 = 0.2045	–	1.89
338.18 K, x1 = 0.4	–	2.891
338.18 K, x1 = 0.499	–	3.563
338.18 K, x1 = 0.599	–	4.34
338.18 K, x1 = 0.7045	–	5.225
338.18 K, x1 = 0.796	–	6.089
338.18 K, x1 = 0.8942	–	7.068
338.18 K, x1 = 1	–	8.1
343.15 K, x1 = 0.0989	3.88	1.432
343.15 K, x1 = 0.2045	4.67	1.699
343.15 K, x1 = 0.2984	4.92	2.057
343.15 K, x1 = 0.599	4.57	3.859
343.15 K, x1 = 0.7045	4.44	4.651
343.15 K, x1 = 0.796	4.32	5.421
343.15 K, x1 = 0.8942	4.2	6.296

CC1COC(=O)O1 (stereo not given) + CC[n+]1ccn(C)c1.N#C[S-]
x2 = 0
Details	viscosity [mPa·s]
298.15 K	2.496
303.15 K	2.164
313.15 K	1.731
318.15 K	1.586
323.15 K	1.466
328.15 K	1.373
338.18 K	1.223
343.15 K	1.173
